{
  "source": "patent US20170306409A1",
  "about": "“CANCER PATIENT SELECTION FOR ADMINISTRATION OF WNT SIGNALING INHIBITORS USING RNF43 MUTATION STATUS” (NOVARTIS AG, priority 2012, published 2017)",
  "key": {"Axin2, YAPC": {"tested_on": "Axin2, YAPC", "assay": "Axin2 qPCR assay (pathway inhibition)", "type": "cell-based, human", "protocol": "(§1) For reverse transcription and quantitative PCR (qPCR), total RNA was extracted from cells or tumors using the RNeasy Plus Mini Kit (Qiagen). 1 μg of RNA were reverse transcribed with Taqman Reverse Transcription Reagents (Applied Biosystems) according to the manufacturer's instruction. Quantitative PCR was performed in 12 μl reactions consisting of 0.6 μl of 20× Taqman probe and PCR primer mix, 6 μl 2× Taqman FAST Advanced Master Mix (Applied Biosystems), and 5.4 μl diluted cDNA template. The thermocycling conditions utilized were 20 seconds at 95° C., followed by 40 cycles of 1 second at 95° C. and 20 seconds at 60° C. All experiments were performed in quadruplicates. Gene expression analysis was performed using the comparative ΔΔCT method and normalized with the housekeeping gene GUSB or 18S. The Taqman probes were purchased from Applied Biosystems.\nConsistent with this observation, treatment of Porcupine inhibitor IWP2 or LGK974 increased the cell surface level of Frizzled and decreased the mRNA levels of AXIN2 and RNF43. See, FIG. 4(b). […] YAPC cells were treated with 3 μM of IWP-2 or 1 μM of LGK974, and subjected to flowcytometry analysis for membrane Frizzled expression."}, "Capan-2 xenografts": {"tested_on": "Capan-2 xenografts", "assay": "PDAC xenograft model, in vivo efficacy and pharmacodynamics", "design": "species or system mice", "source_text": "(§2) To analyze the role of Wnt pathway activation in maintenance of RNF43 mutant pancreatic tumors in vivo, we utilized two PDAC xenograft models (HPAFII and Capan-2).\n(§3) For in vivo efficacy and pharmacodynamic studies, cells were harvested at a density of 95-110% confluency. 10 million cells (HPAFII) or 3 million cells (Capan-2) mixed 50:50 with BD matrigel matrix basement membrane (Matrigel) (BD Biosciences) were subcutaneously implanted into the upper right supra-axillary region of nu/nu (Harlan) (HPAFII) or scid.bg (Harlan) (Capan-2) mice. Tumors were monitored twice weekly by calipering and tumor volumes (TV) were calculated using the ellipsoid formula: TV(mm^3)=((l×w^2)×3.14159))/6. Xenograft tumor-bearing mice were randomized to treatment groups (n=8 per group) either 14 days post tumor implant (Capan-2), when the mean tumor volume reached 223 mm^3 (range 200-250 mm^3) or 11 days post implant (HPAFII), when the mean tumor volume reached 341 mm^3 (range 272-418 mm^3). Mice were treated by oral gavage (p.o.) twice daily (BID) at a dosing volume of 10 mL/kg with either vehicle (0.5% methylcelluose (MC)/0.5% Tween 80) or a 0.65 mg/mL suspension of the fumarate salt form of LGK974 (LGK974-AE-4, free base molecular weight conversion factor 1.293) in 0.5% MC/0.5% Tween 80. In vivo doses are reported as free base equivalents. Following treatment for 14 days (HPAFII) or 35 days (Capan-2), anti-tumor activity was reported as percent treatment/control (% T/C) or % Regression (% REG) values. Anti-tumor activity was calculated using the following formula: % T/C=100 ΔΔTt/ΔCt if ΔTt≧0; or % REG=100 ΔΔTt/T0 if ΔTt<0; where: T0=mean tumor volume (TV) of the drug-treated group on the day of randomization; Tt=mean TV of the drug-treated group at study end; […]; Ct=mean TV of the control group on the final day of the study; C0=mean TV of the control group on the day of randomization; and ΔCt=C0−Ct*% T/C values in the range of 100 to 42% are interpreted to have no anti-tumor activity; % T/C values 42% and >10% are interpreted to have anti-tumor activity, % T/C values 10% or % REG≧-10% are interpreted to be tumor stasis. % REG values <-10% are interpreted as regressions. Separate, parallel cohorts of animals (n=3 per treatment and time point) were treated with vehicle or LGK974 as above to obtain tumor tissue for ex vivo analysis of pharmacodynamic markers.\n(§4) Furthermore, treatment of mice bearing Capan-2 xenografts with 5 mg/kg LGK974, p.o. BID for 35 days achieved tumor stasis (T/C=5%). Consistent with the mechanism of action of LGK974, expression of the β-catenin target gene, AXIN2, was decreased in treated HPAFII and Capan-2 xenografts."}, "HPAFII xenografts": {"tested_on": "HPAFII xenografts", "assay": "PDAC xenograft model, in vivo efficacy and pharmacodynamics", "design": "species or system mice", "source_text": "as §2, §3, §4"}, "RNF43 mRNA, YAPC cells": {"tested_on": "RNF43 mRNA, YAPC cells", "assay": "quantitative RT-PCR gene expression analysis", "type": "cell-based, human", "details": "1 μM of LGK974", "protocol": "FIG. 4(a) is a bar graph showing that the depletion of β-catenin decreases mRNA level of AXIN2 and RNF43. Cells were treated with siRNA, and relative mRNA levels of indicated genes were analyzed by quantitative RT-PCR. […] YAPC cells were treated with 3 μM of IWP2 or 1 μM of LGK974, and subjected to gene expression analysis by quantitative RT-PCR.\nas §1\nConsistent with this observation, treatment of Porcupine inhibitor IWP2 or LGK974 increased the cell surface level of Frizzled and decreased the mRNA levels of AXIN2 and RNF43. See, FIG. 4(b). […]"}, "PK1": {"tested_on": "PK1", "assay": "cell colony formation assay (FIG. 1)", "type": "cell-based, human", "details": "PK1 (RNF43 wild-type); 1 μM LGK974; 10 day assay", "protocol": "(§5) FIG. 1(a) is a photograph showing a HPAFII cell colony formation assay in the presence of LGK974 at two concentrations (300 nM and 1 μM). 1300 cells were seeded into media with indicated treatment and the media were replaced every 5 days until crystal violet staining at day 14. […] FIG. 1(b) is a photograph showing PK1 (having a functional RNF43 protein) and HPAFII (having a nonfunctional RNF43 protein) cell colony formation assays in the presence of 1 μM LGK974 alone or together with daily addition of 10% Wnt3a conditioned media (CM)."}, "HPAFII cells": {"tested_on": "HPAFII cells", "assay": "cell colony formation assay (FIG. 1)", "type": "cell-based, human", "protocol": "as §5"}, "[1]": {"tested_on": "AXIN2, pancreatic cancer cell lines", "assay": "AXIN2 expression across pancreatic cancer cell line panel", "type": "cell-based, human", "details": "22 of 29 cell lines", "protocol": "as §1"}},
  "data": [
    {"smiles": "Cc1cc(-c2ncc(CC(=O)Nc3ccc(-c4cnccn4)cn3)cc2C)ccn1", "note": "[LGK974, 2-[5-methyl-6-(2-methylpyridin-4-yl)pyridin-3-yl]-N-[5-(pyrazin-2-yl)pyridin-2-yl]acetamide]", "values": [
      {"measurement": "Pathway inhibition in Axin2 qPCR assay", "setting": "Axin2, YAPC; YAPC", "value": "Yes"},
      {"measurement": "mRNA level of AXIN2", "setting": "Axin2, YAPC; YAPC cells, 1 μM of LGK974", "value": "decreased"},
      {"measurement": "cell cycle arrest and differentiation within the xenograft tumors", "setting": "Capan-2 xenografts; Capan-2 xenograft tumors", "value": "induced cell cycle arrest and differentiation"},
      {"measurement": "T/C (tumor stasis)", "setting": "Capan-2 xenografts; mice bearing Capan-2 xenografts, 5 mg/kg p.o. BID for 35 days", "value": 5, "unit": "%"},
      {"measurement": "expression of the β-catenin target gene AXIN2 in xenografts", "setting": "Capan-2 xenografts; treated Capan-2 xenografts", "value": "decreased"},
      {"measurement": "cell cycle arrest and differentiation within the xenograft tumors", "setting": "HPAFII xenografts; HPAFII xenograft tumors", "value": "induced cell cycle arrest and differentiation"},
      {"measurement": "T/C (tumor growth in treated relative to vehicle)", "setting": "HPAFII xenografts; mice bearing HPAFII xenografts, 5 mg/kg p.o. BID for 14 days", "value": 33, "unit": "%"},
      {"measurement": "expression of the β-catenin target gene AXIN2 in xenografts", "setting": "HPAFII xenografts; treated HPAFII xenografts", "value": "decreased"},
      {"measurement": "mRNA level of RNF43", "setting": "RNF43 mRNA, YAPC cells", "value": "decreased"},
      {"measurement": "colony formation", "setting": "PK1", "value": "no sensitivity"},
      {"measurement": "colony formation", "setting": "HPAFII cells; HPAFII (RNF43 mutant), 1 μM LGK974 alone", "value": "inhibited"},
      {"measurement": "colony formation", "setting": "HPAFII cells; HPAFII, 300 nM and 1 μM LGK974, crystal violet staining at day 14", "value": "inhibits colony formation"},
      {"measurement": "colony formation, inhibition with exogenous Wnt3a", "setting": "HPAFII cells; HPAFII, 1 μM LGK974 with daily addition of 10% Wnt3a conditioned media", "value": "partially rescued"},
      {"measurement": "share of pancreatic cancer cell lines with decreased expression of AXIN2", "setting": "[1]", "value": 76, "unit": "%"}
    ]}
  ]
}
